# Key:
# [1] = system: MCh bronchoconstrictor response; assay: Rat Einthoven assay (bronchoprotection, inhaled dosing); type: in vivo; settings: inhalation; for ID50 (bronchoprotection): 1.5 hrs post-dose
# Method: All test compounds are diluted in sterile water and are dosed via the inhalation route (IH). The rats (Sprague-Dawley, male, 250-350 g) are exposed to the aerosol generated from an LC Star Nebulizer Set and driven by a mixture of gases (5% CO2/95% atmospheric air). Each test compound solution is nebulized over a 10 minute time period in a pie shaped dosing chamber capable of holding six rats. At predetermined time points after inhalation of compound, the Einthoven assay is performed.
# Thirty minutes prior to the start of pulmonary evaluation, the animals are anesthetized with inactin (thiobutabarbital, 120 mg/kg IP). The jugular vein is catheterized with saline filled polyethylene catheters (PE-50) and used to infuse MCh. The trachea is then dissected and cannulated with a 14G needle and used for rat ventilation during pulmonary evaluation. Once surgery is complete, rats are ventilated using a piston respirator set at a stroke volume of 1 ml/100 g body weight but not exceeding 2.5 ml volume, and at a rate of 90 strokes per minute.
# The changes in pressure that occur with each breath are measured. Baseline values are collected for at least 2.5 minutes then rats are challenged non-cumulatively with 2-fold incremental increases of the bronchoconstrictor MCh (5, 10, 20, 40 and 80 μg/ml). The MCh is infused for 2.5 minutes from a syringe pump at a rate of 2 mL/kg/min. The animals are euthanized upon completion of the studies.
# Changes in ventilation pressure (cm H2O) in treated animals are expressed as % inhibition of MCh response relative to control animals.
# Standard muscarinic antagonists were evaluated in the rat Einthoven assay 1.5 hrs post-dose.
# Standards tiotropium and ipratropium were also evaluated 24 hr and/or 6 hr post-dose in the rat Einthoven assay. […] The observed loss of activity at this time point (6 hr) is consistent with its relatively short duration of action in the clinic.
# [2] = system: pilocarpine-induced salivation; assay: Rat antisialagogue assay; type: in vivo; settings: evaluated at 1, 6 and 24 hr post-dose
# Method: Rats (Sprague-Dawley, male, 250-350 g) are dosed, anesthetized and cannulated as described for Assay 3. At predetermined time points and after surgery, animals are placed on their dorsal side at a 20° incline with their head in a downward slope. A pre-weighed gauze pad is inserted in the animal's mouth and the muscarinic agonist pilocarpine (PILO) (3 mg/kg, iv.) is administered. Saliva produced during 10 minutes post-PILO is measured gravimetrically by determining the weight of the gauze pad before and after PILO. Antisialagogue effects are expressed as % inhibition of salivation relative to control animals.
# The rat antisialagogue assay was developed to assess systemic exposure and calculate the lung selectivity index (LSI) of test compounds. The standard, tiotropium, was evaluated in this model at 1, 6, and 24 hr post-dose. […] This finding is consistent with the peak effects observed in the Einthoven assay. This model is a modified version of the procedure described in Rechter, “Estimation of anticholinergic drug effects in mice by antagonism against pilocarpine-induced salivation” Ata Pharmacol Toxicol 24:243-254 […]. The mean weight of saliva in vehicle-treated animals, at each pre-treatment time, is calculated and used to compute % inhibition of salivation, at the corresponding pre-treatment time, at each dose. […]
Compound,ID50 (bronchoprotection) [1],"fold less potent 6-hr post-dose compared to 1.5 hr potency ([1]; 10 and 30 μg/ml, 6 hr vs 1.5 hr)",time post dose of greatest potency at inhibiting pilocarpine-induced salivation [2],6 hr versus 24 hr potency values [1],fold more potent at 6 hr and 24 hr compared to 1.5 hr potency ([1]; 6 hr and 24 hr vs 1.5 hr),time of peak bronchoprotection post-dose ([1]; slow onset of effect)
C[N+]1(C)CCC(OC(=O)C(O)(c2ccccc2)C2CCCC2)C1 (centres unmarked) [glycopyrrolate],15 µg/mL,,,,,
CC(C)[N+]1(C)[C@@H]2CC[C@H]1C[C@@H](OC(=O)C(CO)c1ccccc1)C2 (some centres unmarked) [ipratropium],4.4 µg/mL,about 3 fold,,,,
C[N+]1(C)[C@@H]2C[C@@H](OC(=O)C(O)(c3cccs3)c3cccs3)C[C@H]1[C@@H]1O[C@@H]12 [tiotropium],6 µg/mL,,6 h,not significantly different from each other,about 2 fold,6 h

# Source: patent publication US8450362B2, “Amidine-containing compounds useful as muscarinic receptor antagonists” (Theravance, Inc., priority 2007, dated 2013)
